In patent publication US20260200990A1, “MODIFIED LONG PEPTIDES SUITABLE FOR USE IN IMMUNISATION” (ISABELLA PHARMA B.V., priority 2022, published 2026):
Ends that are not written are not given here.

System: T cells cultured from PBMC from healthy donors
Test: T cell induction by PRAME-based SLPs, IFNy ELISpot (test 1 and test 2)
Design: species or system human; key to ELISPOT IFNy / ELISPOT IFNy, summary of the results in the table: − (negative); + (positive); When at least one donor had a positive response, this is denoted as POS
Conditions: for ELISPOT IFNy, summary of the results in the table: Table 5, all donors; for IFNy response in in vitro human T cell cultures: summary over the donors tested
Procedure: The capacity of human-PRAME-based SLPs to activate T cells was studied. The biological activity of the synthesized and purified SLPs was tested using PBMC from healthy donors. Monocytes were isolated using anti-CD14 beads by magnet activated cell sorting (MACS) following the protocol of the supplier (Miltenyi Biotec). In short, PBMCs were isolated by centrifugation over a Ficoll gradient and cryopreserved. To generate dendritic cells (DCs), approximately […] thawed PBMC were used for the isolation of CD14 positive cells. The cells were cultured for three days at 37° C. in 2 ml/well of IMDM 4% human serum (HS) containing 800 U/ml GM-CSF and 500 U/ml IL-4 (Peprotech). After 3 days 1 mL/well of IMDM 4% HS with GM-CSF (2400 U/mL) and IL-4 (1500 U/mL) was added to the monocytes-derived DCs and these adhered cells were cultured for an additional 3 days. On day 6, long peptides distributed over 2 pools were added to monocyte-derived DCs of naive donors at a 13 μM concentration and incubated overnight at 37° C. The next day (day 7) peptide-loaded DCs were harvested, irradiated (1000 rad), washed and mixed in a 1:10 ratio with autologous PBMC in IMDM 8% human serum in the presence of IL-7 (10 ng/ml) and IL-12p70 (100 μg/mL).
On day 10 new DCs were generated and loaded, after 6 days, with SLPs on day 16 as described above. The next day, these peptide-loaded DCs were harvested, irradiated (1000 rad) and washed. Also the cultured T cells were harvested. Both were counted and mixed in a 1:10 ratio (DC:T) in IMDM 8% human serum in the presence of IL-7 (10 ng/ml) and IL-12p70 (100 μg/mL) for the first restimulation. On the same day, new DCs were generated as described above that were loaded with SLPs on day 23 as described above. The next day, peptide-loaded DCs were harvested, irradiated (1000 rad) and washed. Also the cultured and restimulated T cells were harvested. Both were counted and mixed in a 1:10 ratio (DC:T) in IMDM 8% human serum in the presence of IL-7 (10 ng/ml) and IL-12p70 (100 μg/mL) for the second restimulation.
On this day 24, also test 1 was started in which DCs loaded with individual SLPs were cultured with harvested T cells from restimulation 1. For test 1, DCs and harvested T cells were cultured in a 1:10 ratio for 2 days after which cells were transferred to a coated ELISpot plate (see description below). On day 24, new DCs were generated as described above that were loaded with SLPs on day 30 as described above. The next day, peptide-loaded DCs were harvested, irradiated (1000 rad) and washed. Also the cultured twice restimulated T cells were harvested. Both were counted and mixed in a 1:10 ratio (DC:T) in IMDM 8% human serum in the presence of IL-2 (30 IU/mL) and IL-12p70 (100 μg/mL) for the third restimulation.
On day 31, also test 2 was started in which DCs loaded with individual SLPs were cultured with harvested T cells from restimulation 2. For test 2, DCs and harvested T cells were cultured in a 1:10 ratio for 2 days after which cells were transferred to a coated ELISpot plate (see description below).
The T cell cultures were restimulated three times in 1-week cycles using peptide loaded autologous moDCs. After the 2nd and 3rd restimulation, reactivity towards single SLPs was tested (test 1 and test 2, respectively). Reactivity was determined by measuring IFNy production using ELISpot.
For ELISpot analysis, multiscreen plates were coated with an IFNy coating antibody overnight at 4° C. The next day, the plate was washed 4× with PBS and blocking was done using IMDM 8% HS at 37° C. for at least one hour. Each sample was tested in triplicate. As a positive control, phytoheamagglutinin (PHA, 1 μg/mL) was added to cells that were not stimulated with SLP after thawing. The plate was cultured overnight at 37° C. Thereafter, cells were discarded and the plate was washed using PBS/0.05% Tween-20. The IFNy detection antibody was diluted and added to each well and incubated for 2 hours at room temperature. […]

[1] = donor BC290, Test 1, 2 peptide pools
[2] = donor BC290, Test 2, 2 peptide pools
[3] = donor BC298, Test 1, 2 peptide pools
[4] = donor BC298, Test 2, 2 peptide pools
[5] = donor BC305, Test 1, 2 peptide pools
[6] = donor BC305, Test 2, 2 peptide pools
[7] = donor BC306, Test 1, 2 peptide pools
[8] = donor BC306, Test 2, 2 peptide pools
[9] = donor BC312, Test 1, 2 peptide pools
[10] = donor BC312, Test 2, 2 peptide pools
[11] = donor BC315, Test 1, 2 peptide pools
[12] = donor BC315, Test 2, 2 peptide pools
[13] = donor BC321, Test 1, 2 peptide pools
[14] = donor BC321, Test 2, 2 peptide pools
[15] = donor BC228, Test 1, pool of 3 peptides
[16] = donor BC228, Test 2, pool of 3 peptides
[17] = donor BC303, Test 1, pool of 3 peptides
[18] = donor BC303, Test 2, pool of 3 peptides
[19] = donor BC314, Test 1, pool of 3 peptides
[20] = donor BC314, Test 2, pool of 3 peptides
[21] = donor BC320, Test 1, pool of 3 peptides
[22] = donor BC320, Test 2, pool of 3 peptides
[23] = donor BC322, Test 1, pool of 3 peptides
[24] = donor BC322, Test 2, pool of 3 peptides
[25] = donor BC323, Test 1, pool of 3 peptides
[26] = donor BC323, Test 2, pool of 3 peptides

| Sequence | ELISPOT IFNy [1] | ELISPOT IFNy [2] | ELISPOT IFNy [3] | ELISPOT IFNy [4] | ELISPOT IFNy [5] | ELISPOT IFNy [6] | ELISPOT IFNy [7] | ELISPOT IFNy [8] | ELISPOT IFNy [9] | ELISPOT IFNy [10] | ELISPOT IFNy [11] | ELISPOT IFNy [12] | ELISPOT IFNy [13] | ELISPOT IFNy [14] | also measured |
| --- | --- | --- | --- | --- | --- | --- | --- | --- | --- | --- | --- | --- | --- | --- | --- |
| VLYPVPLESYEDIHGTLHLERLAYLHARLREL (listed as Homo sapiens) [SEQ ID NO: 41, PRAME-based SLP] | − | − | − | − | − | − | − | − | − | − | + | + | − | − | ELISPOT IFNy, summary of the results in the table: POS |
| VWTSPRRLVELAGQSLLKDEALAIAALELLPRELF (listed as Homo sapiens) [SEQ ID NO: 42, PRAME-based SLP] | − | − | + | + | − | − | − | − | − | − | − | − | + | − |  |
| PTLAKFSPYLGQMINLRRLLLSHIHASSYISPE (listed as Homo sapiens) [SEQ ID NO: 37, PRAME-based SLP] | + | + | − | − | + | − | − | − | − | − | − | − | − | − |  |
| ALYVDSLFFLRGRLDQLLRHVMNPLETLSITNCRL (ALYVDSLFFLRGRLDQLLRHVMNPLETLSITNC(cysteinyl)RL; listed as Homo sapiens) [SEQ ID NO: 40, PRAME-based SLP, cysteinylated form tested] |  |  | − | − | − | − | − | − | − | − |  |  | + | + | ELISPOT IFNy, summary of the results in the table: POS |
| KEGACDELFSYLIEKVKRKKNVLRL (KEGAC(cysteinyl)DELFSYLIEKVKRKKNVLRL; listed as Homo sapiens) [SEQ ID NO: 39, PRAME-based SLP, cysteinylated form tested] |  |  | − | − | − | − | − | − | − | − |  |  | − | − | ELISPOT IFNy [15]: −; ELISPOT IFNy [16]: −; ELISPOT IFNy [17]: −; ELISPOT IFNy [18]: −; ELISPOT IFNy [19]: +; ELISPOT IFNy [20]: +; ELISPOT IFNy [21]: −; ELISPOT IFNy [22]: −; ELISPOT IFNy [23]: −; ELISPOT IFNy [24]: −; ELISPOT IFNy [25]: −; ELISPOT IFNy [26]: −; IFNy response in in vitro human T cell cultures: positive IFNy response |
| LPSLSHCSQLTTLSFYGNSISISALQSLLQHLIGL (LPSLSHC(cysteinyl)SQLTTLSFYGNSISISALQSLLQHLIGL; listed as Homo sapiens) [SEQ ID NO: 44, PRAME-based SLP, cysteinylated form tested] |  |  | − | + | − | − | − | − | − | − |  |  | + | − |  |
| LETFKAVLDGLDVLLAQEVRPRRWKLQVLDLRK (listed as Homo sapiens) [SEQ ID NO: 45, PRAME-based SLP of WO2008118017, reference compound] |  |  | − | − | − | − | − | − | − | − |  |  | − | − | ELISPOT IFNy [15]: −; ELISPOT IFNy [16]: −; ELISPOT IFNy [17]: −; ELISPOT IFNy [18]: −; ELISPOT IFNy [19]: −; ELISPOT IFNy [20]: −; ELISPOT IFNy [21]: −; ELISPOT IFNy [22]: −; ELISPOT IFNy [23]: −; ELISPOT IFNy [24]: −; ELISPOT IFNy [25]: −; ELISPOT IFNy [26]: −; IFNy response in in vitro human T cell cultures: did not show convincing responses |
